The values below come from patent US6936591B2, “Amorphous 9-deoxo-9a-aza-9a-methyl-9a-homoerythromycin A, process for preparing the same, and uses thereof” (Pliva Pharmaceutical Industry, Incorporated, priority 2002, dated 2005).

What all share (format): physicochemical
Data set [1] is described as follows: Dissolution profiles, USP Method 2, dissolved content by HPLC. As to the method:
For comparison, new pseudopolymorph Ic as prepared by the procedure in Example 3 above and new amorphous 9-deoxo-9a-aza-9a-methyl-9a-homoerythromycin A as prepared by the procedure in Example 11 above were used. The comparative dissolution profiles were determined by USP Method 2, PharmaTest Dissolution Tester, PTW SII; and the content of dissolved 9-deoxo-9a-aza-9a-methyl-9a-homoerythromycin A was measured by HPLC. The data thus obtained are set forth in Table 2 below, and plotted in FIGS. 8 (pH 3) and 9 (pH 6).

The nature of data set [2]: Intrinsic dissolution rate (IDR), Intrinsic Dissolution Tester, Van Kel Type. The note with it: medium of pH 6 and 37° C. As to the method: The intrinsic dissolution rates (IDR) for the new amorphous 9-deoxo-9a-aza-9a-methyl-9a-homoerythromycin A prepared according to the procedure of Example 11, and the commercial 9-deoxo-9a-aza-9a-methyl-9a-homoerythromycin A dihydrate, in medium of pH 6 and 37° C., were determined by Intrinsic Dissolution Tester, Van Kel Type. The IDR for the new amorphous 9-deoxo-9a-aza-9a-methyl-9a-homoerythromycin A was about […], about […] higher than the IDR of the prior art, i.e. 9-deoxo-9a-aza-9a-methyl-9a-homoerythromycin A dihydrate (about 1.8 mg min^−1cm^−2).

Data set [3] is described as follows: Hygroscopicity and stability at normal storage conditions.

As for `CC[C@H]1OC(=O)[C@H](C)[C@@H](O[C@H]2C[C@@](C)(OC)[C@@H](O)[C@H](C)O2)C(C)[C@@H](O[C@@H]2O[C@H](C)C[C@H](N(C)C)[C@H]2O)[C@](C)(O)C[C@@H](C)CN(C)[C@H](C)[C@@H](O)[C@]1(C)O` (stereo partly drawn) [9-deoxo-9a-aza-9a-methyl-9a-homoerythromycin A dihydrate, reference compound], the Percent dissolved in data set [1] (pH 3, 37° C., 5 minutes, dihydrate) is recorded as 3.9%; in data set [1] (pH 3, 37° C., 10 minutes, dihydrate) it was 8.1%; in data set [1] (pH 3, 37° C., 20 minutes, dihydrate), 14.6%; in data set [1] (pH 3, 37° C., 45 minutes, dihydrate), 26.7%; in data set [1] (pH 3, 37° C., 60 minutes, dihydrate), 33.3%; in data set [1] (pH 6, 37° C., 5 minutes, dihydrate), 14.5%. Also, the Percent dissolved in data set [1] (pH 6, 37° C., 10 minutes, dihydrate) amounted to 27.3%; in data set [1] (pH 6, 37° C., 20 minutes, dihydrate), 44.2%; in data set [1] (pH 6, 37° C., 45 minutes, dihydrate), 69.1%; in data set [1] (pH 6, 37° C., 60 minutes, dihydrate), 73.7%. Moreover, the “Intrinsic dissolution rate (IDR)” value in data set [2] (dihydrate) was “about 1.8 mg min^−1 cm^−2”.
As for `CC[C@H]1OC(=O)[C@H](C)[C@@H](O[C@H]2C[C@@](C)(OC)[C@@H](O)[C@H](C)O2)C(C)[C@@H](O[C@@H]2O[C@H](C)C[C@H](N(C)C)[C@H]2O)[C@](C)(O)C[C@@H](C)CN(C)[C@H](C)[C@@H](O)[C@]1(C)O` (stereo partly drawn) [Example 11, 9-deoxo-9a-aza-9a-methyl-9a-homoerythromycin A], the “Specific dissolution rate as compared with the dihydrate” value in data set [1] (compared with the dihydrate) is on record as “significantly better”. In addition, the Percent dissolved turned out to be 14.3% in data set [1] (pH 3, 37° C., 5 minutes); 26.5% in data set [1] (pH 3, 37° C., 10 minutes); 50.5% in data set [1] (pH 3, 37° C., 20 minutes); 85.8% in data set [1] (pH 3, 37° C., 45 minutes); 89.5% in data set [1] (pH 3, 37° C., 60 minutes); 78.5% in data set [1] (pH 6, 37° C., 5 minutes). Also, the Percent dissolved in data set [1] (pH 6, 37° C., 10 minutes) was 97.5%; in data set [1] (pH 6, 37° C., 20 minutes), 98.7%; in data set [1] (pH 6, 37° C., 45 minutes), 96.7%; in data set [1] (pH 6, 37° C., 60 minutes), 95.1%. In data set [2], the “Intrinsic dissolution rate (IDR)” value was “about 2.79 mg min^−1 cm^−2”. Moreover, in data set [2] (relative to commercial dihydrate), the “IDR higher than the IDR of the dihydrate” value is on record as “about 40%”. For the same compound, the Hygroscopicity result in data set [3] is listed as “not hygroscopic”. In data set [3] (normal storage conditions), the “Stability (chemical stability and stability of the "crystal" form)” value was “stable”.
In the case of `CC[C@H]1OC(=O)[C@H](C)[C@@H](O[C@H]2C[C@@](C)(OC)[C@@H](O)[C@H](C)O2)[C@H](C)[C@@H](O[C@@H]2O[C@H](C)C[C@H](N(C)C)[C@H]2O)[C@](C)(O)C[C@@H](C)CN(C)[C@H](C)[C@@H](O)[C@]1(C)O` [Ic, 9-deoxo-9a-aza-9a-methyl-9a-homoerythromycin A], the Percent dissolved is 12.3% in data set [1] (pH 3, 37° C., 5 minutes); 29.4% in data set [1] (pH 3, 37° C., 10 minutes); 52.5% in data set [1] (pH 3, 37° C., 20 minutes); 92.2% in data set [1] (pH 3, 37° C., 45 minutes); 93.2% in data set [1] (pH 3, 37° C., 60 minutes); 74.0% in data set [1] (pH 6, 37° C., 5 minutes). Further, the Percent dissolved in data set [1] (pH 6, 37° C., 10 minutes) is 98.8%; in data set [1] (pH 6, 37° C., 20 minutes), 98.6%; in data set [1] (pH 6, 37° C., 45 minutes), 95.3%; in data set [1] (pH 6, 37° C., 60 minutes), 94.6%.
